Consider two compounds from article PMC6017477, “In Vitro ADME Properties of Two Novel Antimicrobial Peptoid-Based Compounds as Potential Agents against Canine Pyoderma” (Molecules : A Journal of Synthetic Chemistry and Natural …, 2018).

Each structure is given as a SMILES string. Non-standard residues stand in square brackets, D forms with d. Residues, ends and D or L forms follow the SMILES beside them. N(1-naphthylmethyl)Gly = O=C(O)CNCc1cccc2ccccc12; N(4-MeBn)Gly = Cc1ccc(CNCC(=O)O)cc1; NBuGly = CCCCNCC(=O)O; Nlys = NCCCCNCC(=O)O Bounds are passed on as bounds.

For data set [1], the system named is Staphylococcus pseudintermedius. In kind it is cell-based. The settings on record: irrespective of the strain being MSSP or MRSP; Mueller-Hinton broth, 35 °C, 16–20 h. The protocol:
Assays were performed by microbroth dilution of test compounds in Mueller-Hinton broth (MHB) in microtiter plates (Corning 96-well clear polypropylene round bottom plates, non-treated) according to the Clinical and Laboratory Standard Institute guidelines. The compounds were tested in concentrations ranging from 1 to 64 μg/mL (1, 2, 4, 8, 16, 32, 64 μg/mL). Briefly, bacteria were streaked on blood agar plates and incubated overnight at 37 °C. From these plates, colonies were suspended in saline solution and adjusted by nephelometer to obtain turbidity equivalent to a 0.5 McFarland standard. The suspension was diluted 1:100 in sterile 0.9% (w/v) saline, and 50 μL of this suspension was transferred to each well of the microtiter plate containing 50 μL of peptide solution in water, resulting in a concentration of 5 × 10^5 CFU/well. The microtiter plate was sealed and incubated at 35 °C for 16–20 h. Results were read by visual inspection.

Data set [2] is described as follows: in vitro. In kind it is cell-based. The settings on record: dog. An excerpt: B1 and D2 were designed on the basis that the majority of antimicrobial peptides are cationic and hydrophobic. We envisaged that short linear peptide-peptoid hybrids consisting of cationic lysines and hydrophobic peptoid residues would result in derivatives with potent antibacterial activity and low cytotoxicity. […] Repeated experiments on different days with different human blood samples confirmed the results.

The test system of a further data set is dog plasma proteins. Kind of data set: Plasma protein binding, rapid equilibrium dialysis. In kind it is in vitro ADME. The settings on record: Beagle, dog, 4 h, 30.8 µM, pH 7.4. On the procedure: (§1) The plasma protein binding properties of candidate drugs can influence their efficacy, safety, and distribution. The fraction of peptoid bound to proteins of plasma collected from dogs was determined using rapid equilibrium dialysis.
(§2) Plate inserts comprised two side-by-side chambers separated by a dialysis membrane (8K MWCO). The chambers contained […] plasma or 350 µL dialysis buffer (PBS buffer pH 7.4), respectively. Dogplasma lot was identical to the one used in the plasma stability assay. […] Plates were sealed and incubated at 37 °C for 4 h on a shaker. Each test was run in quadruplicate in dog plasma. Upon completion of the assay, the plasma protein binding was determined by protein precipitation with ACN of both plasma and PBS, and drug levels were quantified via LC-MS/MS as described above. The percentage of bound compounds was determined from peak areas using Equations (3) and (4):% free = (concentration buffer chamber/concentration plasma chamber) × 100%(3) % bound = 100% − % free(4)
In general terms: In equilibrium dialysis only unbound substance equilibrates across the membrane.

Data set [3] is described as follows: Plasma protein binding, rapid equilibrium dialysis. In kind it is in vitro ADME, dog. The settings on record: Beagle, dog; for recovery at 4 h, 30.8 µM: pH 7.4, % Average Recovery; for fraction unbound at 4 h, 30.8 µM: plasma. The protocol: as §1, §2
The nature of data set [4]: in vitro. The settings on record: Beagle, dog. The protocol:
Plasma stability was determined by incubation of a known concentration of the peptoid/hybrid of interest with dog plasma up to 60 min at 37 °C and analyzing the concentration of the peptide in the supernatant by LC-MS/MS after protein precipitation. Results are presented as average of triplicates from a single donor.
Dog plasma was collected from a single Beagle dog at the research facilities of Zoetis Animal Health (Kalamazoo, MI, USA) and frozen immediately until use. […] Test compounds were added to plasma diluted 1:1 with PBS buffer pH 7.4 and preheated for 5 min at 37 °C. Samples were removed at 0, 5, 10, 20, 30, and 60 min. The reaction was stopped by protein precipitation by adding a 9:1 (v/v) ACN:MeOH mixture followed by centrifugation at 10,000 rpm for 5 min, and the remaining amount of intact test compounds in the supernatant was quantified via API Sciex 4000Q LC-MS/MS (Framingham, MA, USA) (coupled with an HPLC column to filter off the plasma proteins—see Supplementary Materials, Section S6) upon completion of the assay. Experiments were performed in quadruplicate.

A short description of data set [5]: in vitro. The settings on record: liver microsomes. An excerpt: Liver microsomal assay is used to determine hepatic intrinsic clearance of a drug and identification and profile of metabolites across species. Evaluation of microsomal stability of compounds in different species is common procedure in the drug discovery process to evaluate different metabolites in case of instability.
Dog and human microsomes were obtained from XenoTech LLC (Kansas City, KS, USA) and reconstituted in buffer containing D-(L)-isocitrate trisodium salt and 10 U/mL isocitrate dehydrogenase type IV glycerol solution (procine). […] The reaction was initiated by adding NADPH and substrate to reconstituted microsomes. A final concentration of 1 µM substrate was incubated with 0.5 mg/mL microsomes in the presence of 1 mM NADP^+ in 100 mM PBS with 1 mM MgCl2. Samples were collected at 0, 5, 10, 20, 30, and 60 min. The reaction was conducted at 37 °C before termination by addition of ACN, and analysis was conducted by LC-MS/MS (similar to the method described above). Controls with no drug and with no microsome regeneration system (buffer only) were included. All samples were prepared in triplicate. The rate of degradation by metabolism was measured on the basis of the difference of substrate concentration remaining at every time point. Metabolic half-lives were calculated as mentioned above.

The target of a further data set is T1, trypsin (Bos taurus, UniProt P00760).
T1 sequence (P00760 24-246): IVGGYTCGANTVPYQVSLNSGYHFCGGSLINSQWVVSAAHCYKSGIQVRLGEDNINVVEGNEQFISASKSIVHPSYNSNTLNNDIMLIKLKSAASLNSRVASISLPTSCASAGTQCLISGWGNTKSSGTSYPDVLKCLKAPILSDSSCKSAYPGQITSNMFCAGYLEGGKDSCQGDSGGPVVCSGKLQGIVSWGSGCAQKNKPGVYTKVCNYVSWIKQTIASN
Kind of data set: Stability to proteases: trypsin. On the procedure:
Solutions, concentrations, and reaction temperatures were selected according to manufacturer’s recommendations for total peptide digestion. A stock solution of 1 mM trypsin was prepared in 1 mM Tris HCl buffer solution containing 20 mM Ca^2+. […] […] Chymotrypsin was solubilized at 10 mg/mL in 1 mM HCl solution containing 2 mM CaCl2. […] Chymotrypsin reaction was conducted in 100 mM Tris HCl containing 10 mM CaCl2, pH 7.8 at 30 °C. […] At time 0, 3, and 6 h, 50 µL aliquots were removed for RP-HPLC analysis (see supplementary Materials, Section S3).

The mark [6] stands for this setting: pH 7.4, % Unbound (free fraction).

The fraction unbound is free concentration divided by total concentration. Low values mean little free substance, high ones much free substance. A word on the half-life: it is the time needed for the level to fall by half in the phase considered. By amount remaining is commonly meant what is left of the initial amount, in per cent. For the compound `CCCCN(CC(N)=O)C(=O)CN(CCCCN)C(=O)CN(Cc1cccc2ccccc12)C(=O)CN(CCCCN)C(=O)CN(Cc1ccc(C)cc1)C(=O)CN(Cc1cccc2ccccc12)C(=O)CN(CCCCN)C(=O)CNCCCCN` [Compound D2] (H-[Nlys][Nlys][N(1-naphthylmethyl)Gly][N(4-MeBn)Gly][Nlys][N(1-naphthylmethyl)Gly][Nlys][NBuGly]-NH2), in data set [1], the “Minimum inhibitory concentration (MIC)” value fell in the range of 2 to 4 µg/mL. The hemolysis at 150 µM in “in vitro [2]” was found to be 22%. For the same compound, in the data set on dog plasma proteins, the “% Average Recovery” value was 70.8%. The “Bound to plasma proteins” value with dog plasma proteins (plasma) turned out to be 98.6%. The recovery at 4 h, 30.8 µM in data set [3] was > 70%. For the same compound, the free fraction (fraction unbound) at 4 h, 30.8 µM in data set [3] (setting [6]) was 0.0143; in data set [3] (pH 7.4, Bound to plasma proteins) it was < 0.02. Further, the half-life is > 2 h in “in vitro [4]” (plasma, pH 7.4, Half-life in plasma (dog), dog plasma, 37 °C, incubation up to 60 min, LC-MS/MS); > 2 h in the data set “in vitro [5]” (dog); > 2 h in “in vitro [5]” (human). In addition, in the data set “in vitro [5]”, the share remaining at 1 h, 1 µM amounted to 77%. Further, at trypsin, the “degradation after 24 h of incubation with trypsin” value is reported as “no degradation”.

As to `CCCCN(CC(=O)N[C@@H](CCCCN)C(=O)N(CC(=O)N(CC(=O)N(CC(N)=O)Cc1cccc2ccccc12)Cc1ccc(C)cc1)Cc1cccc2ccccc12)C(=O)[C@H](CCCCN)NC(=O)[C@@H](N)CCCCN` [Compound B1] (H-KK[NBuGly]K[N(1-naphthylmethyl)Gly][N(4-MeBn)Gly][N(1-naphthylmethyl)Gly]-NH2), the “Minimum inhibitory concentration (MIC)” value in data set [1] was in the range of 2 to 4 µg/mL. The hemolysis at 150 µM in the data set “in vitro [2]” was 45%. Further, the “% Average Recovery” value with dog plasma proteins was 75.6%. In data set [3], the recovery at 4 h, 30.8 µM was > 70%. In addition, the fraction unbound at 4 h, 30.8 µM in data set [3] (setting [6]) stood at 0.0016. The half-life in “in vitro [4]” (dog plasma diluted 1:1 with PBS, pH 7.4, Half-life in plasma (dog), dog plasma, 37 °C, incubation up to 60 min, LC-MS/MS) is ~0.5 h; in “in vitro [4]” (dog plasma diluted 1:1 with PBS, pH 7.4, stability to plasma proteases (half-life), in hours), 0.5 h. In addition, the half-life at 1 µM in “in vitro [5]” (dog) and in the data set “in vitro [5]” (human) was > 2 h throughout. The share remaining at 1 h, 1 µM in the data set “in vitro [5]” was 100%. For the same compound, the metabolised at 24 h, 1 mg/mL at trypsin (isolated enzyme trypsin) turned out to be 6%.
